According to US10494391B2, “Two-component anti-cancer composition” (KING FAHD UNIVERSITY OF PETROLEUM AND MINERALS, priority 2017, dated 2019):
Entries after “also recorded” stand apart in the source; their conditions may differ.

Assays:
Format in all cases: cell-based
[1] = test system: HCT15 (human colon adenocarcinoma) cell line; experiment: MTT assay for in vitro cytotoxicity, HCT15; details: for antiproliferative potential for HCT15 cells, in words (relative to cisplatin / within the series): comparison of IC50 values; for IC50: 24 h incubation with compound, three independent experiments, read-out: IC50 values against HCT15 cancer cell line
Method: (§1) The anticancer activity of complexes 1-5 was measured using a similar testing protocol reported earlier (M. Altaf et al., New J. Chem. 2015, 39, 377-385, incorporated herein by reference in its entirety) against a panel of representative human tumor cell lines, which included MCF7 (human breast cancer), HCT15 (human colon adenocarcinoma) and A549 (human lung carcinoma) cell lines. The cells were seeded at 3×10^3 cells/well in 100 μL DMEM containing 10% Fetal Bovine Serum (FBS) in 96-well tissue culture plate and incubated for 72 h at 37° C., 5% CO2 in air and 90% relative humidity in CO2 incubator. After incubation, 100 μL of 50, 25 and 12.5 μM solutions of cisplatin and complexes 1-5 prepared in Dulbecco's Modified Eagle's Medium (DMEM), were added to the cells and the cultures were incubated for 24 h. The medium of wells was discarded and 100 μL DMEM containing MTT (0.5 mg/mL) was added to the wells and incubated in CO2 incubator at 37° C. in dark for 4 h. After incubation, a purple colored formazan produced in the cells appeared as dark crystals in the bottom of the wells. The culture medium was discarded from each well carefully to prevent disruption of monolayer and 100 μL of dimethyl sulfoxide (DMSO) was added in each well. The solution in the wells was thoroughly mixed to dissolve the formazan crystals which produce a purple solution. The absorbance of the 96 well-plates was taken at 570 nm with Lab systems Multiskan EX ELISA reader against a reagent blank. The experimental results were presented as micro-mole concentration of 50% cell growth inhibition (IC50) of each compound. The MTT assay was performed in three independent experiments.
(§2) The synthesized gold(I)-phosphine complexes (1 and 2), gold(I)-dithiocarbamates (3-5) and cisplatin (standard classical anticancer drug) were tested for in vitro cytotoxicity against A549, MCF7 and HCT15 human cancer cell lines using MTT assay. The dose-dependent inhibition of cell proliferation was obtained by specific increase in concentration of tested compounds against fixed number of three human cancer cell lines. […] The highest activity of 4 might be attributed to the strong binding of dithiocarbamate sulfur to gold(I) that would prevent it to interact with plasma proteins in tissues, unlike cisplatin which was strongly bound to plasma proteins through sulfur atoms of thiols (S. Ahmad. Chem. Biodiv. 2010, 7, 543-566, incorporated herein by reference in its entirety).

[2] = test system: MCF7 (human breast cancer) cell line; experiment: MTT assay for in vitro cytotoxicity, MCF7; details: for antiproliferative potential for MCF7 cells, in words (relative to cisplatin / within the series): comparison of IC50 values; for IC50: 24 h incubation with compound, three independent experiments, read-out: IC50 values against MCF7 cancer cell line
Method: as §1, §2

[3] = test system: A549 (human lung carcinoma) cell line; experiment: MTT assay for in vitro cytotoxicity, A549; details: for IC50: 24 h incubation with compound, three independent experiments, read-out: IC50 values against A549 cancer cell line; for activity against A549 cells, in words (relative to cisplatin / within the series): comparison of IC50 values
Method: as §1, §2

Compound | antiproliferative potential for HCT15 cells, in words (relative to cisplatin / within the series) [1] | antiproliferative potential for MCF7 cells, in words (relative to cisplatin / within the series) [2] | IC50 [1] | IC50 [2] | IC50 [3] | activity against A549 cells, in words (relative to cisplatin / within the series) [3]
NCC[P+]([Au-2][P+](CCN)(c1ccccc1)c1ccccc1)(c1ccccc1)c1ccccc1 [Complex 2, [Au(AEP)2]Cl] | comparable to cisplatin | about half with respect to cisplatin | – | – | – | –
N.N.[Cl][Pt][Cl] [cisplatin, reference compound] | – | – | 32 ± 2.12 µM | 23.2 ± 3.79 µM | 42.2 ± 2.01 µM | –
[Au2(S2CN(C2H5)2)2]n [Complex 4] | comparable to cisplatin; also recorded: most active among the series | about half with respect to cisplatin; also recorded: most active among the series | 38.9 ± 2.38 µM | 48.8 ± 1.96 µM | 19.6 ± 0.85 µM | most active among the series
[Au2(S2CN(CH3)2)2]n [Complex 3] | least effective | least effective | 257 ± 3.39 µM | 139 ± 4.51 µM | 304 ± 5.9 µM | least effective
[Au2(S2CN(CH7)2)2]n [Complex 5] | – | – | 69.1 ± 3.35 µM | 76.3 ± 2.52 µM | 29.2 ± 1.81 µM | –
